Assay [1] has as its target T1, EGFR (L858R T790M C797S) (Homo sapiens, UniProt P00533, C797S/L858R/T790M).
T1 construct: purchased SignalChem E10-122VG
As to the kind of experiment: Biochemical EGFR inhibition assay (Caliper mobility shift), EGFR LRTMCS. Particulars: LRTMCS (PH) IC50 (nM) @ 1 mM ATP (Num), EGFR LRTMCS mutant. In short, it runs like this: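 Kinase reactions proceed at 25° C. to 10%–20% conversion of total peptide, are terminated with 35 mM EDTA, and the phosphopeptide is resolved from substrate by electrophoretic mobility shift. Apparent IC50 values come from plotting percent activity against log compound concentration.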

The target of assay [2] is T2, intracellular phosphorylation of EGFR in NCI-H1975 cell line that harbors the EGFR L858R T790M mutations (Homo sapiens, UniProt P00533, L858R/T790M).
T2 construct: NCI-H1975 cell line that harbors the EGFR L858R T790M mutations (ATCC, CRL-5908); host or cells: NCI-H1975
T2 sequence (P00533 25-1210 T790M/L858R): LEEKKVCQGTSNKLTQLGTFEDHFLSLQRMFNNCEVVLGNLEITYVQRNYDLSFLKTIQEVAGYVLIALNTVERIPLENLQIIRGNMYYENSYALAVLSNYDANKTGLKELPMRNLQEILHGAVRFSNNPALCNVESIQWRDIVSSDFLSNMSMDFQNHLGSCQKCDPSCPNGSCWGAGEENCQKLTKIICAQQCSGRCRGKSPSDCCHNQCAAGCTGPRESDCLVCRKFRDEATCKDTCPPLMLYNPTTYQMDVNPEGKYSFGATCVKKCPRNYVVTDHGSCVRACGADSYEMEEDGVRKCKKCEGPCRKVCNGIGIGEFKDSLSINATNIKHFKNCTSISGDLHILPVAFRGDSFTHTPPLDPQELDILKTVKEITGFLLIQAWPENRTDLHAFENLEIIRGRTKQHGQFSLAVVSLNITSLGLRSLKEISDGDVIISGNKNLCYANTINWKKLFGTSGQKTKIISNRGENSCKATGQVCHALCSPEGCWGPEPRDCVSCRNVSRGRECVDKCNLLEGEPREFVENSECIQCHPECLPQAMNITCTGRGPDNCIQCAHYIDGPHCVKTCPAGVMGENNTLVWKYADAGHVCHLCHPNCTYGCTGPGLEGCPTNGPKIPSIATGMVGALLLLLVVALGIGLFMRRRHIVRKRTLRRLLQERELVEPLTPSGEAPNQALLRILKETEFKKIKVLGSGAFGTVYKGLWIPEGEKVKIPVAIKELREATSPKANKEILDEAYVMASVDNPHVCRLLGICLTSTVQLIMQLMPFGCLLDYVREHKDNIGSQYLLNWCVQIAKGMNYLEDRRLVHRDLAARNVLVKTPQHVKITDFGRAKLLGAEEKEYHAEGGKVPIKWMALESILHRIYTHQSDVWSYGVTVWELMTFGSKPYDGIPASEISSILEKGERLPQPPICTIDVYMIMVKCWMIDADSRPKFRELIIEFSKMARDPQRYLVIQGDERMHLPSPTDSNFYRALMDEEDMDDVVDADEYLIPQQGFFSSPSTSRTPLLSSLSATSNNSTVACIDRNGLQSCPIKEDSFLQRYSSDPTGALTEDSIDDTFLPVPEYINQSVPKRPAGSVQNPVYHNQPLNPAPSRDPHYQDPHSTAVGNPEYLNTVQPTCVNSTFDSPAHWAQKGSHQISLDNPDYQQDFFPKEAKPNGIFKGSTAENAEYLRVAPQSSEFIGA
As to the kind of experiment: NCI-H1975 pEGFR AlphaLISA assay. Particulars: NCI-H1975 cells (EGFR L858R T790M), p-EGFR (Tyr1068), 4-5 hours incubation. It is filed as cell-based. Here is the method: On the next day, the test compounds and DMSO control were added into H1975 cell plate followed by incubation at 37C/5% CO2 for 4-5 hours. […] Then 5 μL of a donor bead mix was added to each well followed by overnight incubation at room temperature in dark. On the next day, the plate was read at a compatible plate reader to obtain pEGFR signal. Percent of pEGFR inhibition was plotted against log concentration of compounds to generate IC50 values.
(In general: Bead proximity is the source of the signal in Alpha formats.)

[3] abbreviates: read-out: Ext pEGFR H1975 GMean IC50 (nM) Protocol: @Pharmaron AlphaLISA (Num).

Read-outs that look alike come from different tables or passages of the source.

As a reminder, the IC50 is the point on the concentration scale where inhibition reaches its midpoint.

T1 sequence (P00533 25-1210 T790M/C797S/L858R): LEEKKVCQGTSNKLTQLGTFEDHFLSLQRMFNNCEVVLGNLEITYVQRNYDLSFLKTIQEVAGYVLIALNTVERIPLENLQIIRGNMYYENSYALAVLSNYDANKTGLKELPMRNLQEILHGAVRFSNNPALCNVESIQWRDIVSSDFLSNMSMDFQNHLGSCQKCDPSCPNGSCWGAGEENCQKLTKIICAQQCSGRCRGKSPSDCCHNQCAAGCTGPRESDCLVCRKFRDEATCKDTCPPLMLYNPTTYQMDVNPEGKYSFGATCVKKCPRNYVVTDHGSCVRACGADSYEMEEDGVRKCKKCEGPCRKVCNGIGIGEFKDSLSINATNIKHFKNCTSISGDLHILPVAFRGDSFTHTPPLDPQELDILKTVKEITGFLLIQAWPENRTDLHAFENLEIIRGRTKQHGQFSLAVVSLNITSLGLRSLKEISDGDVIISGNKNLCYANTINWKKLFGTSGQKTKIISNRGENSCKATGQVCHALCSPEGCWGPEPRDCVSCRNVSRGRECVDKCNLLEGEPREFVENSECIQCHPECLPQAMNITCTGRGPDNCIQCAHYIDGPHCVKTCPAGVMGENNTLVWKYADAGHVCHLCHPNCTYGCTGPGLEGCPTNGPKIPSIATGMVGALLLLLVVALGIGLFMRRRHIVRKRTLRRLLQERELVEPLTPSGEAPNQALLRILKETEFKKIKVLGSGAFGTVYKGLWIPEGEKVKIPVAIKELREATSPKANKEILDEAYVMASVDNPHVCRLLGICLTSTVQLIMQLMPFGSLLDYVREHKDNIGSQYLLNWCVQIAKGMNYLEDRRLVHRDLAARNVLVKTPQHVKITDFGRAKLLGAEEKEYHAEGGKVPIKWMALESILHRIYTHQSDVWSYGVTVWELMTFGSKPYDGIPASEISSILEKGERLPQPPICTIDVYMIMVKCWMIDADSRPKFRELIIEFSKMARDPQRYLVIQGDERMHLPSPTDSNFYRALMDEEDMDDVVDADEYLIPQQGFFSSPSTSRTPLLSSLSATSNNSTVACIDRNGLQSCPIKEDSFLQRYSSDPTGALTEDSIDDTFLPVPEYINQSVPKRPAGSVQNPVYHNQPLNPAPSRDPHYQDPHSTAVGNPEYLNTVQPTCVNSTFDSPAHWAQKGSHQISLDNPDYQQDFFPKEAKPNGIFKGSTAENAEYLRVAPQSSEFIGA

Consider `COP(=O)(CC1CN(c2ncc(C(C)C)c3cc(Nc4ccnc(N5CC[C@@H](O)[C@@](C)(F)C5)n4)ncc23)C1)OC` [Example 96, dimethyl ((1-(6-((2-((3S,4R)-3-fluoro-4-hydroxy-3-methylpiperidin-1-yl)pyrimidin-4-yl)amino)-4-isopropyl-2,7-naphthyridin-1-yl)azetidin-3-yl)methyl)phosphonate], for which the IC50 in assay [1] and in assay [2] (Ext pEGFR H1975 GMean IC50 (nM) Protocol: @Pharmaron AlphaLISA (Num)) was 20 to 30 nM throughout.
On to `CC(C)c1cnc(N2CC3(CCS3(=O)=O)C2)c2cnc(Nc3ccnc(N4CC[C@@H](O)[C@@](C)(F)C4)n3)cc12` [Example 98, 6-(6-((2-((3S,4R)-3-fluoro-4-hydroxy-3-methylpiperidin-1-yl)pyrimidin-4-yl)amino)-4-isopropyl-2,7-naphthyridin-1-yl)-1-thia-6-azaspiro[3.3]heptane 1,1-dioxide], for which the IC50 in assay [1] is less than 15 nM; in assay [2] (setting [3]), 10 to 20 nM.
As for `CC(C)c1cnc(N2CC3(CCN(C)C3=O)C2)c2cnc(Nc3ccnc(N4CC[C@@H](O)[C@@](C)(F)C4)n3)cc12` [Example 99, 2-(6-((2-((3S,4R)-3-fluoro-4-hydroxy-3-methylpiperidin-1-yl)pyrimidin-4-yl)amino)-4-isopropyl-2,7-naphthyridin-1-yl)-6-methyl-2,6-diazaspiro[3.4]octan-5-one], the IC50 in assay [1] lay within 30 to 100 nM; in assay [2] (setting [3]) it was 30 to 50 nM.
For `CC(C)c1cnc(N2CC(C[S+]([O-])C(F)(F)F)C2)c2cnc(Nc3ccnc(N4CC[C@@H](O)[C@@](C)(F)C4)n3)cc12` (stereo partly drawn) [Example 100, (3S,4R)-3-fluoro-1-(4-((5-isopropyl-8-(3-(((trifluoromethyl)sulfinyl)methyl)azetidin-1-yl)-2,7-naphthyridin-3-yl)amino)pyrimidin-2-yl)-3-methylpiperidin-4-ol], the IC50 in assay [1] is less than 15 nM; in assay [2] (setting [3]) it was 10 to 20 nM.
The corresponding values for `CC(C)c1cnc(N2CC(C3COC3)C2)c2cnc(Nc3ccnc(N4CC[C@@H](O)[C@@](C)(F)C4)n3)cc12` [Example 101, (3S,4R)-3-fluoro-1-(4-((5-isopropyl-8-(3-(oxetan-3-yl)azetidin-1-yl)-2,7-naphthyridin-3-yl)amino)pyrimidin-2-yl)-3-methylpiperidin-4-ol] are less than 15 nM and 30 to 50 nM.
The corresponding values for `C[C@@H]1[C@@H](O)CN1c1ncc(C2CC2)c2cc(Nc3ccnc(N4CC[C@@H](O)[C@@](C)(F)C4)n3)ncc12` [Example 102, (3S,4R)-1-(4-((5-cyclopropyl-8-((2R,3S)-3-hydroxy-2-methylazetidin-1-yl)-2,7-naphthyridin-3-yl)amino)pyrimidin-2-yl)-3-fluoro-3-methylpiperidin-4-ol] are 20 to 30 nM and greater than 50 nM.
Consider `CC(C)c1ccc(N2C[C@H](O)[C@H]2C)c2cnc(Nc3ccnc(N4CC[C@@H](O)[C@@](C)(F)C4)n3)cc12` [Example 103, (3S,4R)-3-fluoro-1-(4-((8-((2R,3S)-3-hydroxy-2-methylazetidin-1-yl)-5-isopropylisoquinolin-3-yl)amino)pyrimidin-2-yl)-3-methylpiperidin-4-ol], for which the IC50 in assay [1] is less than 15 nM; in assay [2] (setting [3]), 10 to 20 nM.
`Cc1nnc(C2CN(c3ccc(C(C)C)c4cc(Nc5ccnc(N6CC[C@@H](O)[C@@](C)(F)C6)n5)ncc34)C2)o1` [Example 104, (3S,4R)-3-fluoro-1-(4-((5-isopropyl-8-(3-(5-methyl-1,3,4-oxadiazol-2-yl)azetidin-1-yl)isoquinolin-3-yl)amino)pyrimidin-2-yl)-3-methylpiperidin-4-ol]: the IC50 in assay [1] was less than 15 nM; in assay [2] (setting [3]) it was less than 10 nM.
Regarding `CC(C)c1ccc(N2CC[C@H]2CO)c2cnc(Nc3ccnc(N4CC[C@@H](O)[C@@](C)(F)C4)n3)cc12` [Example 105, (3S,4R)-3-fluoro-1-(4-((8-((S)-2-(hydroxymethyl)azetidin-1-yl)-5-isopropylisoquinolin-3-yl)amino)pyrimidin-2-yl)-3-methylpiperidin-4-ol], the IC50 in assay [1] is less than 15 nM; in assay [2] (setting [3]), 20 to 30 nM.
The corresponding values for `CC(C)c1ncc(N2CC[C@H]2C)c2cnc(Nc3ccnc(N4CC[C@@H](O)[C@@](C)(F)C4)n3)cc12` [Example 106, (3S,4R)-3-fluoro-1-(4-((5-isopropyl-8-((R)-2-methylazetidin-1-yl)-2,6-naphthyridin-3-yl)amino)pyrimidin-2-yl)-3-methylpiperidin-4-ol] are less than 15 nM and 20 to 30 nM.
In the case of `CO[C@H]1CN(c2ncc(C(C)C)c3cc(Nc4ccnc(N5CC[C@@H](O)[C@@](C)(F)C5)n4)ncc23)[C@@H]1C` [Example 107, (3S,4R)-3-fluoro-1-(4-((5-isopropyl-8-((2R,3S)-3-methoxy-2-methylazetidin-1-yl)-2,7-naphthyridin-3-yl)amino)pyrimidin-2-yl)-3-methylpiperidin-4-ol], the IC50 was less than 15 nM in assay [1] and less than 10 nM in assay [2] (setting [3]).
The corresponding values for `[2H]C([2H])([2H])O[C@H]1CN(c2ncc(C(C)C)c3cc(Nc4ccnc(N5CC[C@@H](O)[C@@](C)(F)C5)n4)ncc23)[C@@H]1C` [Example 108, (3S,4R)-3-fluoro-1-(4-((5-isopropyl-8-((2R,3S)-3-(methoxy-d3)-2-methylazetidin-1-yl)-2,7-naphthyridin-3-yl)amino)pyrimidin-2-yl)-3-methylpiperidin-4-ol] are less than 15 nM and 10 to 20 nM.
The corresponding values for `CC(C)c1cnc(N2C[C@H](OC(F)F)[C@H]2C)c2cnc(Nc3ccnc(N4CC[C@@H](O)[C@@](C)(F)C4)n3)cc12` [Example 109, (3S,4R)-1-(4-((8-((2R,3S)-3-(difluoromethoxy)-2-methylazetidin-1-yl)-5-isopropyl-2,7-naphthyridin-3-yl)amino)pyrimidin-2-yl)-3-fluoro-3-methylpiperidin-4-ol] are 20 to 30 nM and 10 to 20 nM.
For the molecule `CC(C)c1ccc(N2CCC2)c2cnc(Nc3ccnc(N4CC[C@@H](O)[C@@](C)(F)C4)n3)cc12` [Example 110, (3S,4R)-1-(4-((8-(azetidin-1-yl)-5-isopropylisoquinolin-3-yl)amino)pyrimidin-2-yl)-3-fluoro-3-methylpiperidin-4-ol], the IC50 is 30 to 100 nM in assay [1] and greater than 50 nM in assay [2] (setting [3]).
With `CC(C)c1ccc(N2CC(c3nnco3)C2)c2cnc(Nc3ccnc(N4CC[C@@H](O)[C@@](C)(F)C4)n3)cc12` [Example 111, (3S,4R)-1-(4-((8-(3-(1,3,4-oxadiazol-2-yl)azetidin-1-yl)-5-isopropylisoquinolin-3-yl)amino)pyrimidin-2-yl)-3-fluoro-3-methylpiperidin-4-ol], the IC50 in assay [1] is less than 15 nM; in assay [2] (setting [3]) it was less than 10 nM.
The corresponding values for `CC(C)c1ccc(N2CC(c3nncn3C)C2)c2cnc(Nc3ccnc(N4CC[C@@H](O)[C@@](C)(F)C4)n3)cc12` [Example 112, (3S,4R)-3-fluoro-1-(4-((5-isopropyl-8-(3-(4-methyl-4H-1,2,4-triazol-3-yl)azetidin-1-yl)isoquinolin-3-yl)amino)pyrimidin-2-yl)-3-methylpiperidin-4-ol] are less than 15 nM and 10 to 20 nM.
On to `CC(C)c1ccc(N2CC(C)(c3nnco3)C2)c2cnc(Nc3ccnc(N4CC[C@@H](O)[C@@](C)(F)C4)n3)cc12` [Example 113, (3S,4R)-3-fluoro-1-(4-((5-isopropyl-8-(3-methyl-3-(1,3,4-oxadiazol-2-yl)azetidin-1-yl)isoquinolin-3-yl)amino)pyrimidin-2-yl)-3-methylpiperidin-4-ol], for which the values for the IC50 in assay [1] and in assay [2] (setting [3]) were 20 to 30 nM and 10 to 20 nM, respectively.
The corresponding values for `CC(C)c1nnc(N2CCCC2)c2cnc(Nc3ccnc(N4CC[C@@H](O)[C@@](C)(F)C4)n3)cc12` [Example 114, (3S,4R)-3-fluoro-1-(4-((1-isopropyl-4-(pyrrolidin-1-yl)pyrido[3,4-d]pyridazin-7-yl)amino)pyrimidin-2-yl)-3-methylpiperidin-4-ol] are 30 to 100 nM and greater than 50 nM.
On to `CC(C)c1cnc(N2CCC[C@H]2CN(C)C)c2cnc(Nc3ccnc(N4CC[C@@H](O)[C@@](C)(F)C4)n3)cc12` [Example 115, (3S,4R)-1-(4-((8-((S)-2-((dimethylamino)methyl)pyrrolidin-1-yl)-5-isopropyl-2,7-naphthyridin-3-yl)amino)pyrimidin-2-yl)-3-fluoro-3-methylpiperidin-4-ol], for which the IC50 in assay [1] fell in the range of 30 to 100 nM; in assay [2] (setting [3]), 30 to 50 nM.
Turning to `CC(C)c1cnc(N2CCC23CN(C)C3)c2cnc(Nc3ccnc(N4CCC5(CCO5)CC4)n3)cc12` [Example 116, N-(2-(1-oxa-7-azaspiro[3.5]nonan-7-yl)pyrimidin-4-yl)-5-isopropyl-8-(6-methyl-1,6-diazaspiro[3.3]heptan-1-yl)-2,7-naphthyridin-3-amine], the IC50 in assay [1] was 20 to 30 nM; in assay [2] (setting [3]) it was greater than 50 nM.
Consider `CC(C)c1cnc(N2CC(O)C2)c2cnc(Nc3ccnc(N4CCC5(CCO5)CC4)n3)cc12` [Example 117, 1-(6-((2-(1-oxa-7-azaspiro[3.5]nonan-7-yl)pyrimidin-4-yl)amino)-4-isopropyl-2,7-naphthyridin-1-yl)azetidin-3-ol], for which the IC50 in assay [1] is 15 to 20 nM; in assay [2] (setting [3]) it was greater than 50 nM.

(Values after US20240382483A1, “HETEROCYCLIC EGFR INHIBITORS FOR USE IN THE TREATMENT OF CANCER” (Blueprint Medicines Corporation, priority 2021, published 2024).)
